Laboratory results published in patent publication US20200323811A1, “INTRANASAL PHARMACEUTICAL COMPOSITION COMPRISING ANTICANCER DRUGCONTAINING NANOPARTICLES FOR TREATING BRAIN DISEASES” (INDUSTRY-UNIVERSITY COOPERATION FOUNDATION HANYANG …, priority 2016, published 2020).

What was measured:
C-6 glioma cells = experiment: Viability/apoptosis (calcein-AM / EthD-1) analysis; type: cell-based, rat; details: 24 hours
Description: (§1) The rat (C6) and human (U87MG) glioblastoma cells used in this experiment were obtained from ATCC (Rockville, Md.), and cultured in Dulbecco's Modified Eagle's Medium (DMEM) containing 10% fetal bovine serum, penicillin (100 IU/mL) and streptomycin (100 μg/mL) at 37° C. in a 5% CO2 incubator. For all in vitro experiments, the cells were seeded in a 12-well plate at a density of 1×10^5 cells/well.
An image was captured using a fluorescence microscope (Leica, Wetzlar, Germany). A percentage of live or dead cells was calculated using ImageJ software, developed by the National Institute of Health (NIH).

C6-Luc glioblastoma = experiment: Intracranial C6-Luc orthotopic glioblastoma model, intranasal inoculation; type: in vivo, Sprague-Dawley rats
Description: The therapeutic efficacy of intranasally-delivered PTX-loaded NPs was evaluated in an intracranial C6-Luc orthotropic model. […] Therefore, as a PTX solvent, DMSO was used. In addition, to minimize DMSO-associated cytotoxicity, the PTX-loaded NPs were dissolved in PBS. The intranasal inoculation started at day 4 after tumor administration and was performed daily for a total of three times.
(§2) Specifically, intracranial tumor models were established from 6-week-old male Sprague-Dawley rats. The anesthetized rats were placed in a stereotaxic frame, and the skull was gently exposed to spot the bregma. The monitoring points for the bregma were as follows: anteroposterior, 0 mm; lateral, 2.0 mm; and ventral, 4.0 mm. A fine burr hole (0.7 mm) was created in the skull without disrupting the dura using a microsurgical drill. A total of 2×10^5/10 μl C6-Fluc cells were injected using a 26-gauge Hamilton microsyringe (80330; Reno, Nev., USA) at a speed of 0.9 μl/min. To generate a human glioblastoma model, 1×10^5/[…] of U87MG-Fluc cells were inoculated into immunodeficient nude mice by the same method. After the operation, the skin was sutured.
In vivo and ex vivo bioluminescence imaging was performed. For in vivo bioluminescence imaging, 150 mg/kg of D-luciferin (Caliper, Hopkinton, Mass.) was intraperitoneally injected into anesthetized animals. The live images were taken 15 minutes after the injection of D-luciferin by the IVIS Lumina caliper series (Life Technologies, Carlsbad, Calif.). […]
For Nissl staining, paraffin-embedded brain sections were deparaffinized, rehydrated, and then subjected to treatment with a 0.1% crystal violet solution according to a standard protocol. […] The cancer volume was calculated using ImageJ software as described above. […]
To investigate apoptosis in the de-paraffinized and hydrated brain sections, the TUNEL assay was performed using an in situ apoptosis detection kit (Millipore) according to the manufacturer's instruction. […] Fluorescent signals of the cells were measured by taking images using a fluorescence microscope (Leica, Wetzlar, Germany). […]

C6-glioma cells = experiment: TUNEL assay and Hoechst staining in cultured cells; type: cell-based, rat
Description: as §1

U87MG glioma cells = experiment: Cell cycle (DNA content, PI) analysis; type: cell-based, human; details: 24 hours
Description: as §1

rat glioma cells = experiment: Annexin V / 7-AAD apoptosis flow cytometry; type: cell-based; details: 24 hours
Description: as §1

C6 glioblastoma cells = experiment: Cell cycle (DNA content, PI) analysis; type: cell-based, rat; details: 10 μM PTX equivalent, 24 hours
Description: as §1
And then, the cells were collected, and fixed with 70% ethanol at 4° C. for 2 hours. After incubation, the cells were washed, and additionally incubated with a DNase-free RNase (1 mg/mL) and 0.02 mg/mL of propidium iodide (PI). A cell cycle profile was studied using a flow cytometer (BD FACS Calibur™), and analyzed using FlowJo software.

[1] = In vivo toxicity by body weight of inoculated animals; set-up: species or system rat; details: glioblastoma rats, 2 mg/kg intranasal
Description: Further, the in vivo toxicity of NPs was evaluated by measuring a body weight of the inoculated animal. The change in body weight is reliable indicator for assessing the in vivo toxicity of a delivered drug. […] However, an insignificant change in body weight was shown in all animals due to cancer mass over time after tumor implantation (FIG. 8).

U87MG-Fluc glioblastoma = experiment: Human glioblastoma (U87MG-Fluc) model, intranasal inoculation; type: in vivo, immunodeficient nude mice; details: 1 mg/kg intranasal, three inoculations
Description: as §2, with “A total of 2×10^5/10 μl C6-Fluc cells were injected using a 26-gauge Hamilton microsyringe (80330;” left out, “sutured. […] In vivo and ex vivo bioluminescence imaging was performed. For in vivo bioluminescence imaging, 150 mg/kg of D-luciferin (Caliper, Hopkinton, Mass.) was intraperitoneally injected into anesthetized animals. The live images were taken 15 minutes after the injection of D-luciferin by the IVIS Lumina caliper series (Life Technologies, Carlsbad, Calif.). To evaluate ex vivo bioluminescence, the excised brain tissue was incubated with a D-luciferin substrate for 15 minutes, followed by imaging as described above. […] The cancer volume was calculated using ImageJ software as described above.” for “sutured.”

CC(=O)O[C@H]1C(=O)[C@@]2(C)[C@H]([C@H](OC(=O)c3ccccc3)[C@]3(O)C[C@H](OC(=O)[C@H](O)[C@@H](NC(=O)c4ccccc4)c4ccccc4)C(C)=C1C3(C)C)[C@]1(OC(C)=O)CO[C@@H]1C[C@@H]2O [PTX, Paclitaxel]
dead cells (C-6 glioma cells; 0.01 μM): 8.3% | dead cells (C-6 glioma cells; 0.1 μM): 23.1% | dead cells (C-6 glioma cells; 1 μM): 31.8% | dead cells (C-6 glioma cells; 10 μM): 49.2% | dead cells (C-6 glioma cells; 50 μM): 63.8% | tumor volume (Nissl staining) (C6-Luc glioblastoma; 2 mg/kg PTX equivalent intranasal, PBS 98.4): 90.1 mm^3 | tumor progression (in vivo bioluminescence imaging) (C6-Luc glioblastoma; 2 mg/kg PTX intranasal, three daily inoculations from day 4, up to day 14): relatively identical to the saline-treated group | increase in in vivo bioluminescence signals (C6-Luc glioblastoma; day 14, 2 mg/kg intranasal): 1.0×10^8 fold | nuclear morphology (Hoechst staining) (C6-glioma cells; compared with non-treated glioma cells): severe formation of DNA fragmentation or segmentation or condensed nuclei | number of apoptotic cells stained with TUNEL (C6-glioma cells; equivalent amounts of PTX): concentration-dependently increased | number of TUNEL-positive cells (C6-glioma cells; fifth tested micromolar concentration (50 μM)): ~236.1 | number of TUNEL-positive cells (C6-glioma cells; first tested micromolar concentration (0.01 μM)): approximately 77 | number of TUNEL-positive cells (C6-glioma cells; fourth tested micromolar concentration (10 μM)): ~198.6 | number of TUNEL-positive cells (C6-glioma cells; second tested micromolar concentration (0.1 μM)): ~97.5 | number of TUNEL-positive cells (C6-glioma cells; third tested micromolar concentration (1 μM)): ~136.6 | arrested population at the G2-M phase compared with C6 cells (U87MG glioma cells): slightly higher arrested population at the G2-M phase | annexin V-positive cells (rat glioma cells; 1 μM): 30.1% | annexin V-positive cells (rat glioma cells; 10 μM): 33.1% | annexin V-positive cells (rat glioma cells; 50 μM): 34.2% | number of annexin V and 7-AAD-positive cells (rat glioma cells; various concentrations): concentration-dependently increased | cells at the G1 phase (C6 glioblastoma cells): 9% | cells at the G2-M phase (C6 glioblastoma cells; non-treated 29%): 83% | change in body weight [1]: significant effect on body weight loss | tumor growth / therapeutic effect compared with saline (BLI) (U87MG-Fluc glioblastoma): did not show any therapeutic effect
